From patent US10457710B2, “Antimicrobial peptides, their variants and uses” (priority 2015, dated 2019) come the findings set out here.

One assay deals with S. aureus RN4220. In kind it is cell-based. The note with it: antibiotic sensitive strain S. aureus RN4220. Here is the method:
Minimum inhibition concetrations (MICs) were determined against Escherichia coli (ATCC 25922), Staphylococcus aureus (ATCC 25923), Klebsiella pneumoniae (ATCC 10031) and Pseudomonas aeruginosa (ATCC 27853). Also clinical strains of E. coli, K. pneumoniae, E. cloacae, P. aeruginosa, Serratia marcescens, Proteus mirabilis, S. pneumoniae, Acinetobacter baumannii, A. johnsonii and S. aureus were used for MICs assays. Additionally, clinical strains of yeast including Candida albicans, C. glabrata, C. parapsilosis and C. quillermondiae were used. The susceptibility of these microorganisms to Chain peptides were determined using micro broth dilution assay. Colonies of the respective microorganism from Muller Hinton (MH) agar plates incubated overnight were suspended in MH broth media and final concentration of microorganism was adjusted to 5.0×10^5 cfu/ml. An aliquot of 10 μl of each Chain peptide, or gentamicin, tetracycline as reference antibiotics were added in differing concentrations along with 90 μl of bacterial suspension to 96 well polypropylene plates and incubated at 37° C. for 20 to 24 hours. Concentrations of Chain peptides and reference antibiotics ranged from 0.125 to 128 μg/ml and the MICs were recorded as the lowest concentration with no visual growth of bacteria. Similarly, antifungal MICs were tested in Potato dextrose broth.
(§1) Peptides Chain 104, Chain 105, Chain 201, Chain 308, Chain 310 were tested against antibiotic-sensitive strains of S. aureus RN4220 and methicillin resistant strains of S. aureus COL (MRSA). Chain peptides comprising of either L- or D-form amino acids were tested against these bacteria, and the D-form peptides were found have better activity compared to L-form (Table 6). Synergistic activity of chain peptides along with Ertapenem (4 μg/ml) was tested to know whether it will influence the activity against MRSA strains. […] Chain 310 has the best antibacterial activity against the MRSA strains with a MIC of 0.06 & 0.03 μg/ml along with Ertapenem (4 μg/ml) for both forms of L and D-peptides (Table 6).

A further assay deals with MRSA strains. Description: MIC, synergistic activity with Ertapenem (4 μg/ml). In kind it is cell-based, S. aureus. The note with it: S. aureus COL with 4 μg/ml Ertapenem (synergistic activity). How it is done:
as §1

In another assay the test system is C. parapsilosis. In words: MIC, clinical yeast strains. The assay is classed as cell-based. The gist of the method: (§2)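 Visual growth inhibition defined the MIC in a microdilution assay where fungal strains were cultured in potato dextrose broth instead of MH broth. Cell density was set to 5.0×10^5 cfu/ml, and incubation lasted 20–24 h at 37° C across a 0.125–128 μg/ml series.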

In a further assay the test system is Candida albicans. Description: MIC, clinical yeast strains. In kind it is cell-based. Summed up:
as §2

The subject of a further assay is C. glabrata. In words: MIC, clinical yeast strains. The assay is classed as cell-based. The gist of the method:
as §2

Assay [1] deals with clinical strains of Proteus mirabilis. In words: MIC, microdilution, clinical strains. The note with it: 0.02% BSA, 0.2% acetic acid. In kind it is cell-based. The gist of the method: (§3)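 Overnight MH agar colonies were suspended in MH broth to 5.0×10^5 cfu/ml, mixed with serial peptide dilutions (0.125–128 μg/ml) and incubated at 37° C for 20 to 24 hours. Yeast MICs were run the same way in potato dextrose broth, and wells were scored visually.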
On the technique in general: Broth dilution looks for growth in wells or tubes with falling amounts of substance.

Assay [2] has as its system clinical strains of E. coli. In words: MIC, microdilution, clinical strains. In kind it is cell-based. The conditions noted are these: microdilution, Muller Hinton broth-cation adjusted, 0.02% BSA, 0.2% acetic acid. Summed up:
as §3

The test system of assay [3] is clinical strains of S. pneumoniae. Description: MIC, microdilution, clinical strains. The assay is classed as cell-based. The note with it: 0.02% BSA, 0.2% acetic acid. The gist of the method:
as §3

Assay [4] relates to clinical strains of S. aureus. In words: MIC, microdilution, clinical strains. The assay is classed as cell-based. The note with it: 0.02% BSA, 0.2% acetic acid. The gist of the method:
as §3

The subject of assay [5] is clinical strains of Serratia marcescens. In words: MIC, microdilution, clinical strains. In kind it is cell-based. The note with it: 0.02% BSA, 0.2% acetic acid. The gist of the method:
as §3

Assay [6] relates to clinical strains of E. cloacae. Description: MIC, microdilution, clinical strains. In kind it is cell-based. The note with it: 0.02% BSA, 0.2% acetic acid. Summed up: as §3
Assay [7] concerns clinical strains of P. aeruginosa. In words: MIC, microdilution, clinical strains. In kind it is cell-based. The conditions noted are these: 0.02% BSA, 0.2% acetic acid. The gist of the method: as §3
Assay [8] deals with clinical strains of K. pneumoniae. Description: MIC, microdilution, clinical strains. In kind it is cell-based. The note with it: 0.02% BSA, 0.2% acetic acid. Summed up: as §3
For a further assay, the system named is C. quillermondiae. In words: MIC, clinical yeast strains. In kind it is cell-based. On the set-up: Minimum inhibitory concentration: unit: μg/ml. The note with it: C. quillermondiae clinical yeast strain 1. The gist of the method:
as §2

Structures are written as SMILES. Where a SMILES comes first, the peptide text is derived from it. [ ]: non-standard residue; d: D form.

In the case of `CC[C@@H](C)[C@@H](NC(=O)[C@@H](CCSC)NC(=O)[C@@H](C)NC(=O)[C@@H](CCCNC(=N)N)NC(=O)[C@@H](Cc1c[nH]c2ccccc12)NC(=O)[C@@H](CCCCN)NC(=O)[C@H](N)CCCNC(=N)N)C(=O)N[C@H](CCCNC(=N)N)C(=O)N[C@H](CC(C)C)C(=O)N[C@H](Cc1c[nH]cn1)C(=O)N[C@H](C)C(=O)N[C@H](CCCCN)C(=O)N[C@H](CCCNC(=N)N)C(=O)N[C@H](CC(C)C)C(=O)N[C@H](CCCNC(=N)N)C(=O)N[C@H](CCCCN)C(=O)O` [104 D] (H-[dR][dK][dW][dR][dA][dM][dI][dR][dL][dH][dA][dK][dR][dL][dR][dK]-OH), in the assay on S. aureus RN4220, the “Minimum inhibitory concentration (MICs), S. aureus RN4220” value was 64 µg/mL. Besides, in the assay with MRSA strains, the “Minimum inhibitory concentration (MICs), S. aureus COL + 4 μg/ml Ertapenem” value came out at 4 µg/mL.
As for `CC[C@@H](C)[C@@H](NC(=O)[C@@H](CCSC)NC(=O)[C@@H](C)NC(=O)[C@@H](CCCNC(=N)N)NC(=O)[C@@H](Cc1c[nH]c2ccccc12)NC(=O)[C@@H](CCCCN)NC(=O)[C@H](N)CCCNC(=N)N)C(=O)N[C@H](CCCNC(=N)N)C(=O)N[C@H](CC(C)C)C(=O)N[C@H](Cc1c[nH]cn1)C(=O)N[C@H](C)C(=O)N[C@H](CCCCN)C(=O)N[C@H](Cc1c[nH]c2ccccc12)C(=O)N[C@H](CC(C)C)C(=O)N[C@H](CCCNC(=N)N)C(=O)N[C@H](CCCCN)C(=O)O` [105 D] (H-[dR][dK][dW][dR][dA][dM][dI][dR][dL][dH][dA][dK][dW][dL][dR][dK]-OH), in the assay on S. aureus RN4220, the “Minimum inhibitory concentration (MICs), S. aureus RN4220” value amounted to 16 µg/mL. In addition, the “Minimum inhibitory concentration (MICs), S. aureus COL + 4 μg/ml Ertapenem” value in the assay with MRSA strains was 2 µg/mL.
In the case of `CC(C)C[C@@H](NC(=O)[C@H](N)CCCCN)C(=O)N[C@H](CCCCN)C(=O)N[C@H](Cc1c[nH]c2ccccc12)C(=O)N[C@H](Cc1ccccc1)C(=O)N[C@H](Cc1c[nH]c2ccccc12)C(=O)N[C@H](CC(C)C)C(=O)N[C@H](Cc1ccccc1)C(=O)N[C@H](CCCCN)C(=O)N[C@H](CCCCN)C(=O)N[C@H](CCCNC(=N)N)C(=O)O` [Chain311D] (H-[dK][dL][dK][dW][dF][dW][dL][dF][dK][dK][dR]-OH), the Minimum inhibitory concentration in the assay on C. parapsilosis (C. parapsilosis clinical yeast strain 1) was determined as 16; in the assay with C. parapsilosis (C. parapsilosis clinical yeast strain 2), 8; in the assay with C. parapsilosis (C. parapsilosis clinical yeast strain 3) it was 8; in the assay on C. parapsilosis (C. parapsilosis clinical yeast strain 4) it was 8; with Candida albicans (Candida albicans clinical yeast strain 1), 8; in the assay on Candida albicans (Candida albicans clinical yeast strain 2), 8. The Minimum inhibitory concentration is 8 in the assay on Candida albicans (Candida albicans clinical yeast strain 3); 16 in the assay with Candida albicans (Candida albicans clinical yeast strain 4); 16 in the assay with Candida albicans (Candida albicans clinical yeast strain 5); 16 with C. glabrata (C. glabrata clinical yeast strain 1); 16 in the assay with C. glabrata (C. glabrata clinical yeast strain 2); 8 in the assay with C. glabrata (C. glabrata clinical yeast strain 3). Moreover, the Minimum inhibitory concentration in the assay on C. glabrata (C. glabrata clinical yeast strain 4) is 64; in [1] (Proteus mirabilis strain 1, Muller Hinton broth-cation adjusted) it was greater than 128; in [1] (Proteus mirabilis strain 2, Muller Hinton broth-cation adjusted), 128; in assay [1] (Proteus mirabilis strain 3, Muller Hinton broth-cation adjusted), 128; in [1] (Proteus mirabilis strain 4, Muller Hinton broth-cation adjusted), greater than 128; in assay [1] (Proteus mirabilis strain 5, Muller Hinton broth-cation adjusted) it was greater than 128. The Minimum inhibitory concentration came to 2 in [2] (Escherichia coli strain 1); 2 in [2] (Escherichia coli strain 2); 1 in assay [2] (Escherichia coli strain 3); 0.5 in assay [2] (Escherichia coli strain 4); 1 in assay [2] (Escherichia coli strain 5); 16 in assay [3] (Streptococcus pneumoniae strain 1, Muller Hinton broth-cation adjusted). In addition, the Minimum inhibitory concentration is 8 in assay [3] (Streptococcus pneumoniae strain 2, Muller Hinton broth-cation adjusted); 16 in assay [3] (Streptococcus pneumoniae strain 3, Muller Hinton broth-cation adjusted); 4 in assay [3] (Streptococcus pneumoniae strain 4, Muller Hinton broth-cation adjusted); 8 in [3] (Streptococcus pneumoniae strain 5, Muller Hinton broth-cation adjusted); 1 in assay [4] (Staphylococcus aureus strain 1, Muller Hinton broth-cation adjusted); 1 in assay [4] (Staphylococcus aureus strain 2, Muller Hinton broth-cation adjusted). The Minimum inhibitory concentration in [4] (Staphylococcus aureus strain 3, Muller Hinton broth-cation adjusted) is recorded as 1; in assay [4] (Staphylococcus aureus strain 4, Muller Hinton broth-cation adjusted), 1; in assay [4] (Staphylococcus aureus strain 5, Muller Hinton broth-cation adjusted), 1; in assay [5] (Serratia marcescens strain 1, Muller Hinton broth-cation adjusted), greater than 128; in assay [5] (Serratia marcescens strain 2, Muller Hinton broth-cation adjusted), greater than 128; in assay [5] (Serratia marcescens strain 3, Muller Hinton broth-cation adjusted), greater than 128. Besides, the Minimum inhibitory concentration in [5] (Serratia marcescens strain 4, Muller Hinton broth-cation adjusted) is on record as greater than 128; in assay [5] (Serratia marcescens strain 5, Muller Hinton broth-cation adjusted), greater than 128; in assay [6] (Enterobacter cloacae strain 1, Muller Hinton broth-cation adjusted), 4; in assay [6] (Enterobacter cloacae strain 2, Muller Hinton broth-cation adjusted), 4; in [6] (Enterobacter cloacae strain 3, Muller Hinton broth-cation adjusted) it was 4; in assay [6] (Enterobacter cloacae strain 4, Muller Hinton broth-cation adjusted), 4. Further, the Minimum inhibitory concentration in [6] (Enterobacter cloacae strain 5, Muller Hinton broth-cation adjusted) turned out to be 2; in [7] (Pseudomonas aeruginosa strain 1, Muller Hinton broth-cation adjusted) it was 16; in assay [7] (Pseudomonas aeruginosa strain 2, Muller Hinton broth-cation adjusted) it was 8; in assay [7] (Pseudomonas aeruginosa strain 3, Muller Hinton broth-cation adjusted) it was 16; in [7] (Pseudomonas aeruginosa strain 4, Muller Hinton broth-cation adjusted), 8; in assay [7] (Pseudomonas aeruginosa strain 5, Muller Hinton broth-cation adjusted), 4. Moreover, the Minimum inhibitory concentration in assay [8] (Klebsiella pneumoniae strain 1, Muller Hinton broth-cation adjusted) was determined as 8; in assay [8] (Klebsiella pneumoniae strain 2, Muller Hinton broth-cation adjusted) it was 8; in [8] (Klebsiella pneumoniae strain 3, Muller Hinton broth-cation adjusted), 4; in assay [8] (Klebsiella pneumoniae strain 4, Muller Hinton broth-cation adjusted), 8; in assay [8] (Klebsiella pneumoniae strain 5, Muller Hinton broth-cation adjusted), 4; with C. quillermondiae, 4.
